Measured values published in patent publication US11932609B1 (priority 2023, dated 2024).

Row | SMILES | melting point [°C]
1 | CCOC(=O)C1=C(C)NC(Nc2ccccc2)=NC1c1ccc(F)cc1 (centres unmarked) [DHPM-KNV1, Ethyl 4-(4-fluorophenyl)-6-methyl-2-(phenylamino)-1,4-dihydropyrimidine-5-carboxylate] | 92 to 93
2 | CCOC(=O)C1=C(C)NC(Nc2ccc(Br)cc2)=NC1c1ccc(F)cc1 (centres unmarked) [DHPM-KNV2, Ethyl 2-((4-bromophenyl)amino)-4-(4-fluorophenyl)-6-methyl-1,4-dihydropyrimidine-5-carboxylate] | 120 to 121
3 | CCOC(=O)C1=C(C)NC(Nc2ccc(Cl)cc2)=NC1c1ccc(F)cc1 (centres unmarked) [DHPM-KNV3, Ethyl 2-((4-chlorophenyl)amino)-4-(4-fluorophenyl)-6-methyl-1,4-dihydropyrimidine-5-carboxylate] | 188 to 189
4 | CCOC(=O)C1=C(C)NC(Nc2ccc(C(C)C)cc2)=NC1c1ccc(F)cc1 (centres unmarked) [DHPM-KNV4, Ethyl 4-(4-fluorophenyl)-2-((4-isopropylphenyl)amino)-6-methyl-1,4-dihydropyrimidine-5-carboxylate] | 125 to 126
5 | CCOC(=O)C1=C(C)NC(Nc2ccc(Cl)c(C(F)(F)F)c2)=NC1c1ccc(F)cc1 (centres unmarked) [DHPM-KNV5, Ethyl 2-((4-chloro-3-(trifluoromethyl)phenyl)amino)-4-(4-fluorophenyl)-6-methyl-1,4-dihydropyrimidine-5-carboxylate] | 176 to 177
6 | CCOC(=O)C1=C(C)NC(Nc2ccc3ncsc3c2)=NC1c1ccc(F)cc1 (centres unmarked) [DHPM-KNV7, Ethyl 2-(benzo[d]thiazol-6-ylamino)-4-(4-fluorophenyl)-6-methyl-1,4-dihydropyrimidine-5-carboxylate] | 175 to 176
7 | CCOC(=O)C1=C(C)NC(Nc2ccccc2I)=NC1c1ccc(F)cc1 (centres unmarked) [DHPM-KNV8, Ethyl 4-(4-fluorophenyl)-2-((2-iodophenyl)amino)-6-methyl-1,4-dihydropyrimidine-5-carboxylate] | 229 to 230
8 | CCOC(=O)C1=C(C)NC(Nc2ccc(C(F)(F)F)cc2OC)=NC1c1ccc(F)cc1 (centres unmarked) [DHPM-KNV9, Ethyl 4-(4-fluorophenyl)-2-((2-methoxy-4-(trifluoromethyl)phenyl)amino)-6-methyl-1,4-dihydropyrimidine-5-carboxylate] | 213 to 214
